Assays:
[1] = target: T1, JAK3 (Homo sapiens, UniProt P52333); conditions: as described in Patent Document 1; cited from earlier work
T1 sequence (P52333 1-1124): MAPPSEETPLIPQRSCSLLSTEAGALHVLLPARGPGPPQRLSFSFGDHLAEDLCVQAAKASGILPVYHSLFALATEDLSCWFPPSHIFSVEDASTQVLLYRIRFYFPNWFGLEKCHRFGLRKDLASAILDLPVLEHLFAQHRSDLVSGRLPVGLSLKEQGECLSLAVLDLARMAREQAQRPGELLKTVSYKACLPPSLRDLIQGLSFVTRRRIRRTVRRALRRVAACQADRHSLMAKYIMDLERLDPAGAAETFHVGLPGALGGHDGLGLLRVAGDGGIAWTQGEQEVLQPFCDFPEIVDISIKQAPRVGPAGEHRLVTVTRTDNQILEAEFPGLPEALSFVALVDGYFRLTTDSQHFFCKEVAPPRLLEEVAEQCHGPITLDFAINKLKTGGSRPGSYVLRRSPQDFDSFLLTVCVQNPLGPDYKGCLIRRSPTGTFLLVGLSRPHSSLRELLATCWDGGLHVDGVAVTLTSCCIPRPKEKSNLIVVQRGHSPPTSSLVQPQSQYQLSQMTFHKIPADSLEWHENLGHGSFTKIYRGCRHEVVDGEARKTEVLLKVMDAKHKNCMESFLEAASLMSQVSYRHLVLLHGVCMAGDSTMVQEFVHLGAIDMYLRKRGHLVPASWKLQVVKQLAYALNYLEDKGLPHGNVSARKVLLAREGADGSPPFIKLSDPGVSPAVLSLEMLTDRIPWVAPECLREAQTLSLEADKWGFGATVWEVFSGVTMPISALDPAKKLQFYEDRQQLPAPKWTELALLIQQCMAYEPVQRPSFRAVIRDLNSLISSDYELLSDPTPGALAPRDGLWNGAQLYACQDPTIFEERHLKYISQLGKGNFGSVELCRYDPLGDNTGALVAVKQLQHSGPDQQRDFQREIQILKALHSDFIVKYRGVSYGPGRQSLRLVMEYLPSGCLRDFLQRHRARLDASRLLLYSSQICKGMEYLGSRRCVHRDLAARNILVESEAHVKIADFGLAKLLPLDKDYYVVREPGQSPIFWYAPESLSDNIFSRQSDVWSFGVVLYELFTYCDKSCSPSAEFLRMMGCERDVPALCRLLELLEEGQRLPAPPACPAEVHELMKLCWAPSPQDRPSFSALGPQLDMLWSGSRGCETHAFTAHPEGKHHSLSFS

[2] = Stability test of crystals (storage at 70° C., 70° C./75% RH, Xe lamp; HPLC related substances and powder X-ray diffraction); conditions: for Physical stability / change in the crystal forms: stored at 70° C. or 70° C.·75% RH for 2 weeks
[3] = Solubility measured with a 80% aqueous EtOH solution; assay type: physicochemical; conditions: organic solvent or mixture
Description: The solubility was measured with a 80% aqueous EtOH solution. Further, the crystals of 0.5 L-tartrate and lactate were prepared as crystallized from a crystallization solvent described in Tables below.

[4] = Solubility test in 84% aqueous EtOH solution; assay type: physicochemical
Description: After stirring, the supernatant was filtered and the concentration of the filtrate was quantified by means of HPLC.
HPLC; Columns to be charged: Unison UK Phenyl (manufactured by Imtakt Corporation), particle diameter 3 μm, 4.6 mm×250 mm
Mobile phase: perchlorate buffer at pH 2.5 (0.01 mol/L)^(note)/mixed solution with MeCN for LC (4:1),
Flow rate of mobile phase: about 1.0 mL/min. Detector: ultraviolet absorptiometer (wavelength for measurement: 235 nm), column temperature: 50° C. (column thermostat vessel was used)

[5] = stirred at room temperature in a 84% EtOH solution
[6] = 70° C. 75% RH, 2 weeks, Table 1, hydrobromide
[7] = 70° C., 2 weeks, Table 1, hydrobromide
[8] = Initial (stored in a refrigerator), Table 1, hydrobromide
[9] = Xe lump 40H, Table 1, hydrobromide
[10] = 70° C. 75% RH, 2 weeks, Table 1
[11] = Initial (stored in a refrigerator), Table 1

NC(=O)c1cnc2[nH]ccc2c1N[C@@H]1[C@@H]2CC3C[C@H]1C[C@@](O)(C3)C2 [Ex. 121, 4-{[(1R,2s,3S,5s,7s)-5-hydroxy-2-adamantyl]amino}-1H-pyrrolo[2,3-b]pyridine-5-carboxamide]
JAK3 inhibitory activity [1]: excellent activity | Stability with respect to temperature and humidity ([2]; crystallized free form): not stable with respect to temperature and humidity even when crystallized

NC(=O)c1cnc2[nH]ccc2c1N[C@@H]1[C@@H]2CC3C[C@H]1C[C@@](O)(C3)C2 [Form A01, 4-{[(1R,2s,3S,5s,7s)-5-hydroxy-2-adamantyl]amino}-1H-pyrrolo[2,3-b]pyridine-5-carboxamide monohydrate, reference compound]
Solubility [3]: < 10000 µg/mL | Change of crystal on storage ([2]; no humidity at 70° C.): transition to an anhydride in a free form

NC(=O)c1cnc2[nH]ccc2c1N[C@@H]1[C@@H]2C[C@@H]3C[C@H]1C[C@@](O)(C3)C2.O=C(O)CCC(=O)O [Form A24, 4-{[(1R,2s,3S,5s,7s)-5-hydroxy-2-adamantyl]amino}-1H-pyrrolo[2,3-b]pyridine-5-carboxamide succinate]
LC: total amount of the related substances ([2]; 70° C. 2 W, Table 3): 0.19% | LC: total amount of the related substances ([2]; 70° C. 75% RH 2 W, Table 3): 0.25% | LC: total amount of the related substances ([2]; Initial, Table 3): 0.25% | LC: total amount of the related substances ([2]; Xe lump 40H, Table 3): 0.19%

Cl.NC(=O)c1cnc2[nH]ccc2c1N[C@@H]1[C@@H]2C[C@@H]3C[C@H]1C[C@@](O)(C3)C2 [Form A33, 4-{[(1R,2s,3S,5s,7s)-5-hydroxy-2-adamantyl]amino}-1H-pyrrolo[2,3-b]pyridine-5-carboxamide monohydrochloride]
LC: total amount of the related substances ([2]; 70° C. 2 W, Table 3): 0.48% | LC: total amount of the related substances ([2]; 70° C. 75% RH 2 W, Table 3): 0.48% | LC: total amount of the related substances ([2]; Initial, Table 3): 0.49% | LC: total amount of the related substances ([2]; Xe lump 40H, Table 3): 0.79%

Cl.NC(=O)c1cnc2[nH]ccc2c1N[C@@H]1[C@@H]2C[C@@H]3C[C@H]1C[C@@](O)(C3)C2.O [Form A34, 4-{[(1R,2s,3S,5s,7s)-5-hydroxy-2-adamantyl]amino}-1H-pyrrolo[2,3-b]pyridine-5-carboxamide monohydrochloride hydrate]
LC: total amount of the related substances ([2]; 70° C. 2 W, Table 3): 0.10% | LC: total amount of the related substances ([2]; 70° C. 75% RH 2 W, Table 3): 0.10% | LC: total amount of the related substances ([2]; Initial, Table 3): 0.10% | LC: total amount of the related substances ([2]; Xe lump 40H, Table 3): 0.30%

Br.NC(=O)c1cnc2[nH]ccc2c1N[C@@H]1[C@@H]2C[C@@H]3C[C@H]1C[C@@](O)(C3)C2 [Form A36, 4-{[(1R,2s,3S,5s,7s)-5-hydroxy-2-adamantyl]amino}-1H-pyrrolo[2,3-b]pyridine-5-carboxamide monohydrobromide]
LC: total amount of the related substances ([2]; 70° C. 75% RH, 2 weeks, Table 1, monohydrobromide): 0.28% | LC: total amount of the related substances ([2]; 70° C., 2 weeks, Table 1, monohydrobromide): 0.34% | LC: total amount of the related substances ([2]; Initial (stored in a refrigerator), Table 1, monohydrobromide): 0.43% | LC: total amount of the related substances ([2]; Xe lump 40H, Table 1, monohydrobromide): 0.76%

Br.NC(=O)c1cnc2[nH]ccc2c1N[C@@H]1[C@@H]2C[C@@H]3C[C@H]1C[C@@](O)(C3)C2 [Form A61, 4-{[(1R,2s,3S,5s,7s)-5-hydroxy-2-adamantyl]amino}-1H-pyrrolo[2,3-b]pyridine-5-carboxamide hydrobromide]
Solubility ([4]; 25° C., hydrobromide): 37.2 g/L | Solubility ([4]; 35° C., hydrobromide): 45.5 g/L | Solubility ([4]; 50° C., hydrobromide): 53.8 g/L | Transition of crystal form [5]: underwent transition to a Form B45 after 4 hours | LC: total amount of the related substances [2, 6]: 0.43% | LC: total amount of the related substances [2, 7]: 0.44% | LC: total amount of the related substances [2, 8]: 0.44% | LC: total amount of the related substances [2, 9]: 0.77% | Physical stability / change in the crystal forms [2]: physically stable

Br.NC(=O)c1cnc2[nH]ccc2c1N[C@@H]1[C@@H]2C[C@@H]3C[C@H]1C[C@@](O)(C3)C2 [Form A87, 4-{[(1R,2s,3S,5s,7s)-5-hydroxy-2-adamantyl]amino}-1H-pyrrolo[2,3-b]pyridine-5-carboxamide hydrobromide]
Solubility ([4]; 25° C., hydrobromide): 36.8 g/L | Solubility ([4]; 35° C., hydrobromide): 46.0 g/L | Solubility ([4]; 50° C., hydrobromide): 48.9 g/L | LC: total amount of the related substances [2, 6]: 1.51% | LC: total amount of the related substances [2, 7]: 1.64% | LC: total amount of the related substances [2, 8]: 1.60% | LC: total amount of the related substances [2, 9]: 1.32% | Physical stability / change in the crystal forms [2]: physically stable

Br.NC(=O)c1cnc2[nH]ccc2c1N[C@@H]1[C@@H]2C[C@@H]3C[C@H]1C[C@@](O)(C3)C2.O [Form B11, 4-{[(1R,2s,3S,5s,7s)-5-hydroxy-2-adamantyl]amino}-1H-pyrrolo[2,3-b]pyridine-5-carboxamide hydrobromide monohydrate]
Solubility ([4]; 25° C.): 35.0 g/L | Solubility ([4]; 35° C.): 44.1 g/L | Solubility ([4]; 50° C.): 60.1 g/L | LC: total amount of the related substances [2, 10]: 0.43% | LC: total amount of the related substances ([2]; 70° C., 2 weeks, Table 1): 0.43% | LC: total amount of the related substances [2, 11]: 0.43% | LC: total amount of the related substances ([2]; Xe lump 40H, Table 1): 0.48%

Br.NC(=O)c1cnc2[nH]ccc2c1N[C@@H]1[C@@H]2C[C@@H]3C[C@H]1C[C@@](O)(C3)C2.O.O [Form B21, 4-{[(1R,2s,3S,5s,7s)-5-hydroxy-2-adamantyl]amino}-1H-pyrrolo[2,3-b]pyridine-5-carboxamide hydrobromide dihydrate]
Solubility ([4]; 25° C.): 36.1 g/L | Solubility ([4]; 35° C.): 46.3 g/L | Solubility ([4]; 50° C.): 58.2 g/L | LC: total amount of the related substances [2, 10]: 0.05% | LC: total amount of the related substances ([2]; 70° C., 2 weeks, Table 1): 0.05% | LC: total amount of the related substances [2, 11]: 0.00% | LC: total amount of the related substances ([2]; Xe lump 40H, Table 1): 0.05%

Br.NC(=O)c1cnc2[nH]ccc2c1N[C@@H]1[C@@H]2C[C@@H]3C[C@H]1C[C@@](O)(C3)C2 [Form B45, 4-{[(1R,2s,3S,5s,7s)-5-hydroxy-2-adamantyl]amino}-1H-pyrrolo[2,3-b]pyridine-5-carboxamide hydrobromide]
Solubility rank among crystal forms [4]: lowest solubility crystal form | Solubility ([4]; 25° C., hydrobromide): 23.7 g/L | Solubility ([4]; 35° C., hydrobromide): 29.4 g/L | Solubility ([4]; 50° C., hydrobromide): 36.7 g/L | LC: total amount of the related substances [2, 6]: 0.11% | LC: total amount of the related substances [2, 7]: 0.11% | LC: total amount of the related substances [2, 8]: 0.11% | LC: total amount of the related substances [2, 9]: 0.11% | Physical stability / change in the crystal forms [2]: physically stable

NC(=O)c1cnc2[nH]ccc2c1N[C@@H]1[C@@H]2CC3C[C@H]1C[C@@](O)(C3)C2 [anhydride in a free form, reference compound]
Change of crystal on storage ([2]; with humidity at 70° C.): changed to hydrate

Br.NC(=O)c1cnc2[nH]ccc2c1N[C@@H]1[C@@H]2C[C@@H]3C[C@H]1C[C@@](O)(C3)C2 [hydrobromide, 4-{[(1R,2s,3S,5s,7s)-5-hydroxy-2-adamantyl]amino}-1H-pyrrolo[2,3-b]pyridine-5-carboxamide hydrobromide]
Storage stability in a solid state [2]: excellent storage stability in a solid state

Reference: patent US8779140B2, “Crystal of fused pyridine compound salt” (Astellas Pharma Inc., priority 2010, dated 2014)
